{"source": "patent US10377783B2", "about": "“Methods and compounds for enhancing contrast in magnetic resonance imaging (MRI)” (priority 2015, dated 2019)", "key": {"[1]": {"test_system": "male rat (Sprague Dawley Crl:SD)", "experiment": "In vivo MRI imaging of 2 and 6, T1-weighted scans", "conditions": "for T1-weighted MRI signal intensity, bladder: baseline (−10 min) 5085; for T1-weighted MRI signal intensity, lean muscle: baseline (−10 min) 5640; for T1-weighted MRI signal intensity, liver: baseline (−10 min) 7276; for T1-weighted MRI signal intensity, renal medulla: baseline (−10 min) 7725; for T1-weighted MRI signal intensity, renal cortex: baseline (−10 min) 8005; for T1-weighted MRI signal intensity, fat: baseline (−10 min) 14509", "description": "(§1) Compound 1 (aq., 12.5 mM) was injected intravenously into 2 male rats (Sprague Dawley Crl:SD, 312-338 g) at a dosage of 0.02 mmol/kg following anaesthesia with 5% isoflurane. Compound 2 (aq., 6.25 mM) was injected intravenously into 1 male rat (Sprague Dawley Crl:SD, 349 g) at a dosage of 0.01 mmol/kg following anaesthesia with 5% isoflurane. Compound 6 (aq., 6.25 mM) was injected intravenously into 1 male rat (Sprague Dawley Crl:SD, 341 g) at a dosage of 0.01 mmol/kg following anaesthesia with 5% isoflurane. Anesthesia was maintained at 2-2.5% isoflurane through a nose cone for the duration of the scans. Fast-spin-echo images were collected for 45 mins. immediately post-injection. For compound 1, the DT1-weighted RARE (Rapid Acquisition Relaxation Enhancement) scans were acquired with an echo time of 10 ms, and a repetition time=respiratory cycle duration (˜1100 ms). Both T1- and T2-weighted scans were collected on compounds 2 and 6.\n(§2) The in vivo contrast potential of compounds 1, 2 and 6 were studied via the collection of fast-spin-echo images for 30-45 minutes immediately following injection of an aqueous solution of each complex. The dosage chosen for 1 was 0.02 mmol/kg (c=[…]) while the dosage chosen for 2 and 6 was 0.01 mmol/kg (c=6.25 mM). Predominantly T1-weighted scans with some T2-weighting were performed on two rats injected with 1.\n(§3) Both T1- and T2-weighted scans were performed on two rats injected with 2 and its dimeric analogue 6."}, "[2]": {"test_system": "male rat (Sprague Dawley Crl:SD)", "experiment": "In vivo MRI imaging of 2 and 6, T2-weighted scans", "conditions": "for T2-weighted MRI signal intensity, liver: baseline (−10 min) 965; for T2-weighted MRI signal intensity, lean muscle: baseline (−10 min) 2673; for T2-weighted MRI signal intensity, renal cortex: baseline (−10 min) 4759; for T2-weighted MRI signal intensity, renal medulla: baseline (−10 min) 6454; for T2-weighted MRI signal intensity, bladder: baseline (−10 min) 12921; for T2-weighted MRI signal intensity, fat: baseline (−10 min) 14834", "description": "as §1, §2, §3"}, "[3]": {"conditions": "1 min after injection of 2, 0.01 mmol/kg iv"}, "[4]": {"conditions": "15 min after injection of 2, 0.01 mmol/kg iv"}, "[5]": {"conditions": "30 min after injection of 2, 0.01 mmol/kg iv"}, "[6]": {"conditions": "45 min after injection of 2, 0.01 mmol/kg iv"}, "[7]": {"conditions": "injection of 2, 0.01 mmol/kg iv, first 45 min"}, "[8]": {"conditions": "8 min after injection of 2, 0.01 mmol/kg iv"}, "[9]": {"conditions": "22 min after injection of 2, 0.01 mmol/kg iv"}, "[10]": {"conditions": "37 min after injection of 2, 0.01 mmol/kg iv"}, "[11]": {"conditions": "injection of 2, 0.01 mmol/kg iv, first 40 min"}}, "data": [{"smiles": "CC1=NCCOCCOCCN=C(C)c2cccc1n2.O.O.[Cl-].[Cl-].[Mn+2]", "note": "[Compound 2, [MnL2Cl2].2H2O]", "values": [{"measurement": "excretion (summary)", "setting": "[1]; 0.01 mmol/kg iv", "value": "rapid excretion"}, {"measurement": "T1-weighted MRI signal intensity, bladder", "setting": "[1]; [3]", "value": "5155 arbitrary units of voxel intensity"}, {"measurement": "T1-weighted MRI signal intensity, lean muscle", "setting": "[1]; [3]", "value": "5841 arbitrary units of voxel intensity"}, {"measurement": "T1-weighted MRI signal intensity, liver", "setting": "[1]; [3]", "value": "7568 arbitrary units of voxel intensity"}, {"measurement": "T1-weighted MRI signal intensity, renal medulla", "setting": "[1]; [3]", "value": "9169 arbitrary units of voxel intensity"}, {"measurement": "T1-weighted MRI signal intensity, renal cortex", "setting": "[1]; [3]", "value": "9368 arbitrary units of voxel intensity"}, {"measurement": "T1-weighted MRI signal intensity, fat", "setting": "[1]; [3]", "value": "15671 arbitrary units of voxel intensity"}, {"measurement": "T1-weighted MRI signal intensity, bladder", "setting": "[1]; [4]", "value": "16182 arbitrary units of voxel intensity"}, {"measurement": "T1-weighted MRI signal intensity, lean muscle", "setting": "[1]; [4]", "value": "5696 arbitrary units of voxel intensity"}, {"measurement": "T1-weighted MRI signal intensity, liver", "setting": "[1]; [4]", "value": "7385 arbitrary units of voxel intensity"}, {"measurement": "T1-weighted MRI signal intensity, renal medulla", "setting": "[1]; [4]", "value": "8472 arbitrary units of voxel intensity"}, {"measurement": "T1-weighted MRI signal intensity, renal cortex", "setting": "[1]; [4]", "value": "10144 arbitrary units of voxel intensity"}, {"measurement": "T1-weighted MRI signal intensity, fat", "setting": "[1]; [4]", "value": "15845 arbitrary units of voxel intensity"}, {"measurement": "T1-weighted MRI signal intensity, bladder", "setting": "[1]; [5]", "value": "11996 arbitrary units of voxel intensity"}, {"measurement": "T1-weighted MRI signal intensity, lean muscle", "setting": "[1]; [5]", "value": "5569 arbitrary units of voxel intensity"}, {"measurement": "T1-weighted MRI signal intensity, liver", "setting": "[1]; [5]", "value": "7812 arbitrary units of voxel intensity"}, {"measurement": "T1-weighted MRI signal intensity, renal medulla", "setting": "[1]; [5]", "value": "7969 arbitrary units of voxel intensity"}, {"measurement": "T1-weighted MRI signal intensity, renal cortex", "setting": "[1]; [5]", "value": "10702 arbitrary units of voxel intensity"}, {"measurement": "T1-weighted MRI signal intensity, fat", "setting": "[1]; [5]", "value": "15745 arbitrary units of voxel intensity"}, {"measurement": "T1-weighted MRI signal intensity, bladder", "setting": "[1]; [6]", "value": "13104 arbitrary units of voxel intensity"}, {"measurement": "T1-weighted MRI signal intensity, lean muscle", "setting": "[1]; [6]", "value": "5574 arbitrary units of voxel intensity"}, {"measurement": "T1-weighted MRI signal intensity, liver", "setting": "[1]; [6]", "value": "7683 arbitrary units of voxel intensity"}, {"measurement": "T1-weighted MRI signal intensity, renal medulla", "setting": "[1]; [6]", "value": "8615 arbitrary units of voxel intensity"}, {"measurement": "T1-weighted MRI signal intensity, renal cortex", "setting": "[1]; [6]", "value": "11485 arbitrary units of voxel intensity"}, {"measurement": "T1-weighted MRI signal intensity, fat", "setting": "[1]; [6]", "value": "15860 arbitrary units of voxel intensity"}, {"measurement": "Max. intensity change, T1-weighted, bladder", "setting": "[1]; [7]", "value": 218, "unit": "%"}, {"measurement": "Max. intensity change, T1-weighted, fat", "setting": "[1]; [7]", "value": 9, "unit": "%"}, {"measurement": "Max. intensity change, T1-weighted, lean muscle", "setting": "[1]; [7]", "value": 3, "unit": "%"}, {"measurement": "Max. intensity change, T1-weighted, liver", "setting": "[1]; [7]", "value": 7, "unit": "%"}, {"measurement": "Max. intensity change, T1-weighted, renal cortex", "setting": "[1]; [7]", "value": 43, "unit": "%"}, {"measurement": "Max. intensity change, T1-weighted, renal medulla", "setting": "[1]; [7]", "value": 19, "unit": "%"}, {"measurement": "effect on T1-weighted signal intensity", "setting": "[1]; renal cortex, liver and lean muscle, 0.01 mmol/kg iv", "value": "causes an enhancement in the renal cortex and has negligible effect on liver and lean muscle tissue"}, {"measurement": "T2-weighted MRI signal intensity, liver", "setting": "[2]; [8]", "value": "788 arbitrary units of voxel intensity"}, {"measurement": "T2-weighted MRI signal intensity, lean muscle", "setting": "[2]; [8]", "value": "2386 arbitrary units of voxel intensity"}, {"measurement": "T2-weighted MRI signal intensity, renal cortex", "setting": "[2]; [8]", "value": "3367 arbitrary units of voxel intensity"}, {"measurement": "T2-weighted MRI signal intensity, renal medulla", "setting": "[2]; [8]", "value": "5342 arbitrary units of voxel intensity"}, {"measurement": "T2-weighted MRI signal intensity, bladder", "setting": "[2]; [8]", "value": "7977 arbitrary units of voxel intensity"}, {"measurement": "T2-weighted MRI signal intensity, fat", "setting": "[2]; [8]", "value": "14550 arbitrary units of voxel intensity"}, {"measurement": "T2-weighted MRI signal intensity, liver", "setting": "[2]; [9]", "value": "577 arbitrary units of voxel intensity"}, {"measurement": "T2-weighted MRI signal intensity, lean muscle", "setting": "[2]; [9]", "value": "2451 arbitrary units of voxel intensity"}, {"measurement": "T2-weighted MRI signal intensity, renal cortex", "setting": "[2]; [9]", "value": "3307 arbitrary units of voxel intensity"}, {"measurement": "T2-weighted MRI signal intensity, renal medulla", "setting": "[2]; [9]", "value": "5306 arbitrary units of voxel intensity"}, {"measurement": "T2-weighted MRI signal intensity, bladder", "setting": "[2]; [9]", "value": "667 arbitrary units of voxel intensity"}, {"measurement": "T2-weighted MRI signal intensity, fat", "setting": "[2]; [9]", "value": "12923 arbitrary units of voxel intensity"}, {"measurement": "T2-weighted MRI signal intensity, liver", "setting": "[2]; [10]", "value": "400 arbitrary units of voxel intensity"}, {"measurement": "T2-weighted MRI signal intensity, lean muscle", "setting": "[2]; [10]", "value": "2377 arbitrary units of voxel intensity"}, {"measurement": "T2-weighted MRI signal intensity, renal cortex", "setting": "[2]; [10]", "value": "3034 arbitrary units of voxel intensity"}, {"measurement": "T2-weighted MRI signal intensity, renal medulla", "setting": "[2]; [10]", "value": "4215 arbitrary units of voxel intensity"}, {"measurement": "T2-weighted MRI signal intensity, bladder", "setting": "[2]; [10]", "value": "512 arbitrary units of voxel intensity"}, {"measurement": "T2-weighted MRI signal intensity, fat", "setting": "[2]; [10]", "value": "13440 arbitrary units of voxel intensity"}, {"measurement": "Max. intensity change, T2-weighted, bladder", "setting": "[2]; [11]", "value": "−96", "unit": "%"}, {"measurement": "Max. intensity change, T2-weighted, fat", "setting": "[2]; [11]", "value": "−13", "unit": "%"}, {"measurement": "Max. intensity change, T2-weighted, lean muscle", "setting": "[2]; [11]", "value": "−11", "unit": "%"}, {"measurement": "Max. intensity change, T2-weighted, liver", "setting": "[2]; [11]", "value": "−59", "unit": "%"}, {"measurement": "Max. intensity change, T2-weighted, renal cortex", "setting": "[2]; [11]", "value": "−36", "unit": "%"}, {"measurement": "Max. intensity change, T2-weighted, renal medulla", "setting": "[2]; [11]", "value": "−35", "unit": "%"}]}]}
